The source of these data is patent US8440810B2, “Riboswitches, methods for their use, and compositions for use with riboswitches” (Yale University, priority 2002, dated 2013).

Entries after “also recorded” stand apart in the source; their conditions may differ. Read-outs that look alike come from different tables or passages of the source.

The subject of one test is lysC 5′-UTR template. Briefly: In vitro transcription termination assay, lysC 5′-UTR. To be noted: 10 mM compound.
The target in test [1] is 179 lysC RNA. Briefly: In-line probing of 179 lysC RNA. The note with it: read-out: apparent KD; lysine analogs, data not shown, RNA construct not stated.
Test [2] concerns lysC 5′-UTR fused to lacZ reporter gene. In kind it is cell-based, B. subtilis. The note with it: wild-type construct, minimal medium plus 1 mM compound.
The test system of the next test is 80 ydhL RNA. Briefly: In-line probing of 80 ydhL RNA. In kind it is binding, B. subtilis.
In the next test the test system is metI leader construct. Type of test: biochemical, B. subtilis. To be noted: 50 μM; in all instances (yitJ, yoaD, metK, metI leaders).
A further test deals with 124 yitJ RNA. As to the kind of experiment: In-line probing of 124 yitJ RNA. Type of test: binding, B. subtilis.
For test [3], the system named is 93 xpt RNA. As to the kind of experiment: In-line probing of 93 xpt RNA. In kind it is binding, B. subtilis. The note with it: for modulation of spontaneous cleavage pattern: 1 μM (adenine as much as 1 mM), 93 xpt and 201 xpt.
Test [4] has as its system 93 xpt RNA. As to the kind of experiment: Equilibrium dialysis with 93 xpt RNA. Type of test: binding, B. subtilis. To be noted: 500 nM analog.
In a further test the test system is 165 thiM RNA. In kind it is binding, E. coli. To be noted: for structure modulation: 40 μM each compound; for Kd: thiM RNA as reported in Example 3 (FIG. 13), read-out: apparent KD. From the text: Specifically, TPP-dependent modulation of the spontaneous cleavage of RNA constructs was visualized by polyacrylamide gel electrophoresis (PAGE). […] Some RNAs were subjected to no reaction, partial digestion with alkali, or partial digestion with RNase T1 (G-specific cleavage) (see FIG. 6a). Composite plots of the fraction of RNA cleaved at specific sites versus the logarithm of the concentration of ligand (e.g. FIG. 7a) were generated to provide an estimate of the apparent KD. Fraction cleaved values were normalized relative to the highest and lowest cleavage values measured for each site.
NR, ^−OH and T1 represent RNAs subjected to no reaction, partial digestion with alkali, or partial digestion with RNase Tl (G-specific cleavage), respectively. Product bands representing cleavage after selected G residues are numbered and identified by filled arrowheads. The asterisk identifies modulation of RNA structure involving the Shine-Dalgarno (SD) sequence. Gel separations were analyzed using a phosphorimager (Molecular Dynamics) and quantitated using ImageQuant software.

In a further test the test system is 91 thiM RNA. As to the kind of experiment: Equilibrium dialysis with thiM RNA using 3H-thiamine. Type of test: binding, E. coli. The note with it: 100 μM competitor (Example 2).
In test [5] the test system is 202-nucleotide leader sequence of the btuB mRNA. Type of test: binding, Escherichia coli. To be noted: AdoCbl analogs of FIG. 4. As to the method:
Precursor mRNA leader molecules were prepared by in vitro transcription from templates generated by PCR (see In vivo Expression Constructs and Assays section below) and 5′ ^32p-labeled using methods described previously (Soukup and Breaker, Allosteric nucleic acid catalysts. Curr. Opin. Struct. Biol. 10, […] (2000)). Approximately 20 nM of labeled RNA precursor was incubated as described in the brief description of FIG. 1. Accompanying digestions were carried out using reaction conditions similar to those described previously (Soukup and Breaker, Relationship between internucleotide linkage geometry and the stability of […]. RNA 5, 1308-1325 (1999)). […]
Metabolite-dependent conformational changes in the 202-nucleotide leader sequence of the btuB mRNA. […] The image was generated using a phosphorimager (Molecular Dynamics), and cleavage yields were quantitated by using ImageQuant software. […]
The btuB mRNA leader forms a saturable binding site for AdoCbl. […] 5′-^32P-labeled mRNA leader molecules were incubated, separated, and analyzed as described in the in the legend to FIG. 1A, and include identical control and marker lanes as indicated. […] Fraction cleaved values were normalized relative to the highest and lowest cleavage values measured for each location, including the values obtained upon incubation in the absence of AdoCbl. […]

Test [6] concerns btuB leader-lacZ fusion. Briefly: btuB-lacZ expression assay. In kind it is cell-based, E. coli. The note with it: wild-type btuB leader.
For test [7], the system named is 202-nucleotide mRNA leader (btuB). As to the kind of experiment: Equilibrium dialysis with btuB mRNA leader. The note with it: 5,000 pmoles unlabeled compound added to chamber b.
The test system of test [8] is btuB leader-lacZ fusion. To be noted: from Nou and Kadner; Lundrigan and Kadner; cited from earlier work.
Another test deals with ribD RNA. As to the kind of experiment: In-line probing of ribD RNA (RFN element). Type of test: binding, B. subtilis.
Test [9] deals with wild-type ydhL riboswitch fused to β-galactosidase reporter gene. As to the kind of experiment: ydhL-lacZ β-galactosidase reporter expression. In kind it is cell-based, B. subtilis.
Test [10] relates to xpt riboswitch variant with the C to U mutation at position 74, reporter construct. In kind it is cell-based, B. subtilis.
Test [11] deals with 93 xpt RNA (C to U mutation at position 74). In kind it is binding, B. subtilis.
Test [12] relates to xpt-pbuX 5′-UTR fused to β-galactosidase reporter gene. Briefly: xpt-lacZ β-galactosidase reporter expression. In kind it is cell-based, B. subtilis. The note with it: wild-type xpt construct, six-hour incubation.
Test [13] has as its system 179 lysC RNA. Type of test: binding, B. subtilis. The note with it: 50 μM unlabeled compound, additional 10 hr.
Setting [14] is: translational fusion, 100 μM thiamine, minimal medium.

Protocol for ribD RNA: To assess whether the RFN element of ribD was responsive to FMN, a fragment of the corresponding 5′-UTR was 5′-^32P labeled and incubated in the absence and presence of FMN, and the resulting fragments were analyzed by polyacrylamide gel electrophoresis (PAGE). […] To obtain values for apparent dissociation constant (apparent KD) for FMN, in-line probing assays were repeated with trace amounts of ribD RNA and increasing concentrations of FMN; the ligand concentration that correlates with half-maximal modulation of RNA structure should reflect the apparent KD.

With `NCCSC[C@H](N)C(=O)O` [thiosine, S-(2-aminoethyl)-L-cysteine], in the test on lysC 5′-UTR template, the “induction of transcription termination” value is on record as “cause an increase in transcription termination”. For the same compound, the Kd at 179 lysC RNA [1] is roughly 30 µM. Further, in [2], the “repression of β-galactosidase reporter expression” value is listed as “represses β-galactosidase expression”.

On to `Nc1ncc2[nH]cnc2n1` [2-aminopurine], for which the “binding / structural modulation” value in the test with 80 ydhL RNA is “measurable binding”.

With `Nc1ncnc2c1ncn2[C@@H]1O[C@H](CSC[C@H](N)C(=O)O)[C@@H](O)[C@H]1O` [SAC], in the test on metI leader construct, the “modulation of transcription termination” value is given as “little or no modulation of transcription termination”. In the test on 124 yitJ RNA, the “discrimination relative to SAM” value is on record as ~10,000 fold.

Turning to `Nc1ncnc2c1ncn2[C@@H]1O[C@H](CSCC[C@H](N)C(=O)O)[C@@H](O)[C@H]1O` [SAH, S-adenosylhomocysteine], the “modulation of transcription termination” value with metI leader construct is listed as “little or no modulation of transcription termination”. Besides, the “discrimination relative to SAM” value with 124 yitJ RNA was roughly 100 fold.

Consider `O=c1[nH]c(=O)c2[nH]cnc2[nH]1` [xanthine], for which, in the test with 93 xpt RNA [3], the “modulation of spontaneous cleavage pattern” value was “induce modulation of spontaneous cleavage”.

Regarding `Nc1nc2c(ncn2[C@@H]2O[C@H](CO)[C@@H](O)[C@H]2O)c(=O)[nH]1` [guanosine], the “redistribution of 3H-guanine by excess unlabeled competitor” value in the test on 93 xpt RNA [4] was “fails to restore equal distribution”.

For `c1ncc2[nH]cnc2n1` [P, purine], the “binding / structural modulation” value in the test on 80 ydhL RNA was “measurable binding”.

In the case of `Nc1nc(N)c2[nH]cnc2n1` [2,6-DAP, 2,6-diaminopurine], the “binding / structural modulation” value in the test with 80 ydhL RNA was “measurable binding; also recorded: tightest-binding ligand”.

For `Nc1nc(Br)c2[nH]cnc2n1` [2-amino-6-bromopurine], the “loss in apparent KD relative to guanine” value in the test with 93 xpt RNA [3] is reported as ~1,000 fold.

For the compound `Cc1ncc(C[n+]2csc(CCO)c2C)c(N)n1` [thiamine], the structure modulation entry in the test with 165 thiM RNA was “induce modulation”. The Kd at 165 thiM RNA worked out at 40 µM. In addition, the “suppression of β-galactosidase activity” value with thiM-lacZ fusion (transcriptional fusion) is “not subject to suppression”. Moreover, the “thiamine-dependent suppression of β-galactosidase activity” value is given as 18 fold in the test on thiM-lacZ fusion (setting [14]) and 110 fold in the test on thiC-lacZ fusion (setting [14]). The “modulation of β-galactosidase activity” value in the test on thiC-lacZ fusion (transcriptional fusion) amounted to 16 fold. In addition, the “reversal of 3H-thiamine shift by excess unlabeled compound” value in the test with 91 thiM RNA is “could be eliminated”.

As to 13-epi-AdoCbl [compound 11], the “structural modulation (spontaneous cleavage at site 2, U68)” value in test [5] was “inactive”. In the test on btuB leader-lacZ fusion [6], the “regulatory effector function on reporter gene inside cells” value was “inactive”.

cyanocobalamin: the “restoration of equal tritium distribution by excess unlabeled compound” value in test [7] is on record as “does not restore the ratio of tritium to unity”. For the same compound, the “regulatory effector for btuB expression” value with btuB leader-lacZ fusion [8] is listed as “incapable of serving as a regulatory effector”.

Regarding `Cc1ncc(C[n+]2csc(CCOP(=O)(O)O)c2C)c(N)n1` [TP, thiamine monophosphate], in the test with 165 thiM RNA, the structure modulation result is reported as “induce modulation” and the Kd is 3 µM.

`Cc1cc2nc3c(=O)[nH]c(=O)nc-3n(C[C@H](O)[C@H](O)[C@H](O)CO)c2cc1C` [riboflavin]: the “discrimination relative to FMN” value was “approximately three orders of magnitude” in the test on ribD RNA and ~1,000 fold in the test with ribD RNA (worded for FMN riboswitches).

Regarding `Nc1ncnc2nc[nH]c12` [adenine], the “modulation of spontaneous cleavage pattern” value in the test on 93 xpt RNA [3] was “does not alter the pattern of RNA cleavage products”. The “apparent KD poorer than for guanine” value in the test on 93 xpt RNA [3] (guanine riboswitch from B. subtilis xpt) was “at least 100,000 fold”. For the same compound, the Kd was greater than 300 µM at 93 xpt RNA [3] (read-out: KD); roughly 0.3 µM at 80 ydhL RNA (half-maximal change at sites 1 through 4, read-out: apparent KD); roughly 0.1 µM in [11] (read-out: apparent KD). Also, in test [9], the “increase in gene expression” value is “greater than 10 fold”. Also, the “binding / structural modulation” value in the test on 80 ydhL RNA was “specific for adenine”; in the test on 80 ydhL RNA (listed as A), “measurable binding”. Moreover, the “regulation of reporter expression” value in test [10] is “no change in the putative protein-dependent control”. Also, the “structural modulation and binding in equilibrium dialysis” value in test [11] was “exhibits structural modulation and binding activity”. Moreover, the “repression of reporter expression” value in test [12] was roughly 4 fold.

As to `NCCC[C@H](N)C(=O)O` [L-ornithine], the “restoration of equal tritium distribution by unlabeled competitor” value in the test on 179 lysC RNA [13] is recorded as “do not restore equal distribution of tritium”. For the same compound, in the test on lysC 5′-UTR template, the “induction of transcription termination” value was “Neither D-lysine nor L-ornithine induce termination”.

On to `O=c1[nH]cnc2nc[nH]c12` [hypoxanthine], for which the “modulation of spontaneous cleavage pattern” value in the test with 93 xpt RNA [3] is reported as “induce modulation of spontaneous cleavage”.

Take `Nc1ncnc2nc(Cl)[nH]c12` [8-chloroadenine]: the “binding / structural modulation” value with 80 ydhL RNA was “prevents ligand binding”.

Turning to `NCCCC[C@@H](N)C(=O)O` [D-lysine], in the test on 179 lysC RNA [13], the “restoration of equal tritium distribution by unlabeled competitor” value is “do not restore equal distribution of tritium”. Besides, the “induction of transcription termination” value in the test with lysC 5′-UTR template was “Neither D-lysine nor L-ornithine induce termination”.

For `Cc1ncc(C[n+]2csc(CCO)c2C)c(=O)[nH]1` [oxythiamine], in the test on 165 thiM RNA, the structure modulation result was “fail to induce structure modulation”. Also, the “reversal of 3H-thiamine shift by excess unlabeled compound” value in the test on 91 thiM RNA was “does not significantly restore the tritium distribution to unity; also recorded: could not be reversed”.

As to `CNc1ncnc2nc[nH]c12` [MA, 6-methylaminopurine], the “binding / structural modulation” value in the test on 80 ydhL RNA is given as “measurable binding”.

On to `COc1nc(N)nc2nc[nH]c12` [O^6-methylguanine], for which, in the test with 93 xpt RNA [3], the “loss in apparent KD relative to guanine” value was greater than 100 fold.
